Results: patent publication US5440014A, “Fibronectin binding peptide” (priority 1990, dated 1995)

Legend:
Trypanosoma cruzi = details: Ouaissi et al., 1986; cited from earlier work
Treponema palladium = details: Thomas et al., 1985b; cited from earlier work
spirochetes = details: cited from earlier work
Human fibronectin = Human fibronectin (human, UniProt P02751, ^125 I-labeled (chloramine T iodination)); test: synthetic peptide; inhibition of 125I-HFN binding to S. aureus 8325-4 cells

In the case of RGDS, the “prevention of fibronectin binding to Trypanosoma cruzi” value (Trypanosoma cruzi) is given as “Binding was also prevented”, the “prevention of fibronectin binding to Treponema palladium” value (Treponema palladium) is given as “Binding was also prevented” and the “attachment of spirochetes to cultured human cells” value (spirochetes) is given as “blocked the attachment”.

QFGGHNSVDFEEDT [Peptide S20-33]: no binding (Human fibronectin).
